Where two headings read alike, the source gives them in different places.
What was measured:
[1] = molecular target: T1, P450 BM3 (Priestia megaterium, UniProt P14779); test: P450 BM3 catalysed oxidation of methane to methanol in the presence of an additive; assay type: biochemical, Bacillus megaterium; parameters: polyhistidine (His6) tag from vector pETM11 (N); made in house; host or cells: E. coli BL21 (DE3) GOLD; details: 1 mM additive, 25° C; for Total product formed (methanol): 7% methane, 8% O2, 85% N2, 10 bar; for TON: methane, 10 bar
Description: (§1) The hydroxylation of gaseous alkanes was carried out in a self-constructed low-pressure reactor. […] Subsequently the reaction vessels were linked to a gas bottle via a multichannel gas feed. The following gas mixtures were used to flush the apparatus and to apply a pressure of 10 bar to the reaction solution: a) 7% methane, 8% oxygen, 85% nitrogen, b) 7% propane, 8% oxygen, 85% nitrogen or c) 10% butane, 8% oxygen, 82% nitrogen. The reaction mixture was stirred at 100 rpm with a crosshead-shaped magnetic stirrer (VWR). At the end of the reaction the pressure was carefully released from the reaction vessels, a 1 ml aliquot was centrifuged for 10 min at 13 000 rpm and analyzed by HPLC. […] Each experiment comprised at least one positive control for the enzyme activity, in which dodecanoic acid was added as additive (1 mM final concentration, from a 100 mM stock in DMSO), while the enzyme was exposed to 10 bar of the gaseous alkane mixture. The reaction of dodecanoic acid was analyzed using decanoic acid (1 mM final concentration, from a 100 mM stock in DMSO) as standard. The samples were extracted for the GC analysis with 0.5 volume of MTBE and were analyzed by GC.
30 min isotherm, 60-240° C. at 16° C./min, 240° C. for 5 min isotherm.
The quantification of propanol and butanol was carried out using the RID-10A detector, while the quantification of methanol was carried out using the RID-10A or, preferably, the ED 50 detector. The ED 50 detector was operated in integrated, amperometric detection mode with an Ag reference electrode in the range of 300 nC. The detection was carried out in waveform as follows: […]

[2] = molecular target: T1, P450 BM3; test: P450 BM3 catalysed oxidation of butane and propane in the presence of additives; assay type: biochemical, Bacillus megaterium; parameters: polyhistidine (His6) tag from vector pETM11 (N); made in house; host or cells: E. coli BL21 (DE3) GOLD; details: 1 mM additive, 25° C; for TON: 10 bar; for % ee: Butane oxidation product
Description: as §1
The quantification of propanol and butanol was carried out using the RID-10A detector, while the quantification of methanol was carried out using the RID-10A or, preferably, the ED 50 detector. The ED 50 detector was operated in integrated, amperometric detection mode with an Ag reference electrode in the range of 300 nC. The detection was carried out in waveform as follows:
The P450 BM3 catalysed oxidation of butane and propane was carried out in the presence or absence of additives 1 under standard conditions as follows: 2.5 ml reaction volume, 5 ml gas volume, 1% DMF, 100 mM KPi, pH 8.0, 10 bar pressure (10% n-butane, 8% O2, 82% N2; 7% propane, 8% O2, 85% N2), propane oxidation: 14.5 h, butane oxidation: 17.5 h., 25° C.

[3] = molecular target: T1, P450 BM3; details: 1 mM additive, 20° C; for TON: mol of product/mol of enzyme; for Regioselectivity: 1 hour
Description: For hydroxylating alkanes, for example C6 and C8 alkanes, the substrate was added to the reaction solution from a 160 mM stock in EtOH and was adjusted to a final concentration of 3.2 mM. The solution further comprised 0.1 M glucose (Riedel de Haen), 1 mM NADP^+ (Codexis, Jülich, Germany), 1 U/ml GDH (#001, Codexis, Jülich, Germany), 1 mM additive (unless otherwise stated), BM3-WT enzyme and 100 mM KPi, pH 8.0 with a total volume of 20 ml. The reactions were shaken for 1 hour at 20° C. in a 50 ml Falcon reaction tube in a bacterial incubator at 130 rpm. After one hour, three aliquots were removed, each of 1 ml volume, and acidified with 0.1 ml of 10% HCl. Subsequently 1 mM 1-pentanol was added as internal standard. The mixture was extracted with half a volume of MTBE and analyzed by gas chromatography.
Hydroxylation products were analyzed by GC using the following instruments and under the following conditions: HP6890+7683HP (Hewlett Packard, USA); column: 15 m Stabilwax phase, internal diameter 0.25 mm, film thickness 0.5 μm, (J&W, Germany); pressure: 0.8 bar H2; split rate 60; injector: 220° C.; temperature gradient: 40° C. 4 min isotherm, 40-60° C. at 4° C./min, 60° C.-250° C. at 15° C./min. FID detector. The product peaks were quantified as a ratio to the 1 mM 1-pentanol peak using the following, previously determined, correction factors: 2-octanol: 2.36; 3-,4-octanol: 2.23; 2-,3-hexanol:1.218; 3-Me-3-PeOH,3-Me-2-PeOH: 1.49; 3,3-Di-Me-2-BuOH: 1.43; 2,3-Di-Me-BuOH: 1.317.
Reaction conditions: 3.2 mM alkane; 1% v/v DMF; 2% v/v ethanol; 100 mM glucose, 1 mM NADP^+, 1 U/ml GDH, 1 mM additive, 100 mM KPi, pH 8.0, total volume 20 ml; 1 hour; 20° C. The P450-BM3 concentration depended on the compound used 2: 1 μM, 3: 2.9 μM, 4: 2.9 μM, 5: 1.1 μM, 6: 2.7 μM)
The turnover numbers (TON) were calculated (mol of product/mol of enzyme) for the enzyme at the end of the reaction.

[4] = Propane (7% propane, 8% O2, 85% N2, 10 bar), 2.9 μM enzyme, 14.5 h
[5] = Butane (10% n-butane, 8% O2, 82% N2, 10 bar), 2.3 μM enzyme, 17.5 h
[6] = alkane 3 (3.2 mM), 2.9 μM P450-BM3, 1 hour
[7] = alkane 6 (3.2 mM), 2.7 μM P450-BM3, 1 hour
[8] = alkane 2 (3.2 mM), 1 μM P450-BM3, 1 hour
[9] = alkane 4 (3.2 mM), 2.9 μM P450-BM3, 1 hour
[10] = alkane 5 (3.2 mM), 1.1 μM P450-BM3, 1 hour

T1 sequence (P14779 whole entry): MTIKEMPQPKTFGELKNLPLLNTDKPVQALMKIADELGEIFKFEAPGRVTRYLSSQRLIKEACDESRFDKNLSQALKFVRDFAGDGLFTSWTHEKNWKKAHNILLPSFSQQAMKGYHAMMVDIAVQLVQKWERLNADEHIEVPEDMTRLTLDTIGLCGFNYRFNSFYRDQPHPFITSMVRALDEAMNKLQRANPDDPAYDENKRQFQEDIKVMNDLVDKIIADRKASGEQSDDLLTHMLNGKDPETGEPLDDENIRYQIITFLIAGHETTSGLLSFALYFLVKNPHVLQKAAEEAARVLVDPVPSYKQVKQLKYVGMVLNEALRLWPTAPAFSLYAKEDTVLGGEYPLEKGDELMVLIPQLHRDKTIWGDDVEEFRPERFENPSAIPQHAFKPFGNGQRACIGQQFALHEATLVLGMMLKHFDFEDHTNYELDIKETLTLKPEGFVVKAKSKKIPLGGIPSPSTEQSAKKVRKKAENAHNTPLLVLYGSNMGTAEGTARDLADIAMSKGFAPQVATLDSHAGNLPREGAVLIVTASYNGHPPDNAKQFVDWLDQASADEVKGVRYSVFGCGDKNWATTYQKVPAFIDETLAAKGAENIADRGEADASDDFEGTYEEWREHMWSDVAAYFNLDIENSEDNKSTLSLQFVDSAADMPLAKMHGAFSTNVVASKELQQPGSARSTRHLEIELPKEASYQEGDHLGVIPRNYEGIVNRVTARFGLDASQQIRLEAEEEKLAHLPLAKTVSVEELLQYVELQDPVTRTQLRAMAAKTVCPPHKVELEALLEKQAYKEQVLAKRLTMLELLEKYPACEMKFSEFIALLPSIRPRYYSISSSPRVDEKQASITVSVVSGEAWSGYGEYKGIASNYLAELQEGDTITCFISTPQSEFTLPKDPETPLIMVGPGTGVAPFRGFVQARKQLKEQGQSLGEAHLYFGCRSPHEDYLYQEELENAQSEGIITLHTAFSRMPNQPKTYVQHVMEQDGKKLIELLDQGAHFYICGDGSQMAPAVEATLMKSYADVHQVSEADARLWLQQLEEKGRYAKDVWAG

Compound | Total product formed (methanol) ([1]; 1.3 μM enzyme, 21 h) [mM] | TON ([1]; 1.3 μM enzyme, 21 h) | Total product formed [2, 5] [mM] | % ee ([2]; 17.5 h) [%] | TON ([2]; Butane, 2.3 μM enzyme, 17.5 h) | other results
OCCC(F)(F)C(F)(F)C(F)(F)C(F)(F)C(F)(F)C(F)(F)F [1H, 1H, 2H, 2H-perfluorooctan-1-ol] | – | – | – | – | – | Total product formed (methanol) ([1]; 19 h): 2.53 mM; TON ([1]; 19 h): 1889
O=C(O)C(F)(F)C(F)(F)C(F)(F)C(F)(F)C(F)(F)C(F)(F)C(F)(F)C(F)(F)C(F)(F)C(F)(F)C(F)(F)C(F)(F)F [Additive 1g, perfluorotridecanoic acid] | 0.75 | 560 | – | – | – | –
O=C(O)C(F)(F)C(F)(F)C(F)(F)C(F)(F)C(F)(F)C(F)(F)C(F)(F)C(F)(F)C(F)(F)C(F)(F)C(F)(F)C(F)(F)C(F)(F)F [Additive 1h, perfluorotetradecanoic acid] | 0.28 | 210 | – | – | – | Total product formed [2, 4]: 0.50 mM; TON ([2]; Propane, 2.9 μM enzyme, 14.5 h): 170
O=C(O)C(F)(F)C(F)(F)C(F)(F)C(F)(F)C(F)(F)C(F)(F)C(F)(F)C(F)(F)C(F)(F)F [Additive 1d, perfluorodecanoic acid] | 3.31 | 2472 | 3.9 | 20 | 1699 | –
OCCCC(F)(F)C(F)(F)C(F)(F)C(F)(F)C(F)(F)C(F)(F)C(F)(F)C(F)(F)F [1H, 1H, 2H, 2H, 3H, 3H-Perfluoroundecano, 1H, 1H, 1H, 2H, 2H, 3H, 3H-perfluoroundecanol] | – | – | – | – | – | Total product formed (methanol) ([1]; 19 h): 0.84 mM; TON ([1]; 19 h): 630
O=C(O)C(F)(F)C(F)(F)C(F)(F)C(F)(F)C(F)(F)C(F)(F)C(F)(F)C(F)(F)C(F)(F)C(F)(F)C(F)(F)F [Additive 1f, perfluorododecanoic acid] | 1.25 | 933 | – | – | – | Total product formed [2, 4]: 0.67 mM; TON ([2]; Propane, 2.9 μM enzyme, 14.5 h): 227
OCCCCCCC(F)(F)C(F)(F)F [6(perfluoroethyl)hexanol, 6-(perfluoroethyl)hexanol] | – | – | – | – | – | Total product formed (methanol) ([1]; 19 h): 2.69 mM; TON ([1]; 19 h): 2006
O=C(O)C(F)(F)F [Additive 1a] | – | – | 1.1 | 32 | 469 | –
O=C(O)C(F)(F)C(F)(F)C(F)(F)C(F)(F)C(F)(F)C(F)(F)F [Additive 1b, perfluoroheptanoic acid] | – | – | 8.4 | 22 | 3632 | –
O=C(O)C(F)(F)C(F)(F)C(F)(F)C(F)(F)C(F)(F)C(F)(F)C(F)(F)C(F)(F)C(F)(F)C(F)(F)F [Additive 1e, perfluoroundecanoic acid] | 1.81 | 1353 | 5.8 | 19 | 2519 | Total product formed [3, 6]: 1.50 mM; TON [3, 6]: 525; Total product formed [3, 7]: 0.19 mM; TON [3, 7]: 3241; Regioselectivity ([3]; alkane 6 (3.2 mM), cell reads: only 2-Hydroxy-2,3-dimethylbutane): only 2-Hydroxy-2,3-; Total product formed [2, 4]: 3.0 mM; TON ([2]; Propane, 2.9 μM enzyme, 14.5 h): 1021
O=C(O)C(F)(F)C(F)(F)C(F)(F)C(F)(F)C(F)(F)C(F)(F)C(F)(F)C(F)(F)F [Additive 1c, perfluorononanoic acid] | 2.75 | 2053 | 2.0 | 23 | 879 | Total product formed [3, 8]: 1.16 mM; TON [3, 8]: 1184; Total product formed [3, 9]: 1.36 mM; TON [3, 9]: 476; Total product formed [3, 10]: 0.96 mM; TON [3, 10]: 892; Regioselectivity ([3]; alkane 5 (3.2 mM), cell reads: only 2-Hydroxy-3,3-dimethylbutane): only 2-Hydroxy-3,3-

Source: patent US9428771B2, “Method for the oxidation of organic compounds” (STUDIENGE[…] MBH, priority 2010, dated 2016)
